From PubChem BioAssay AID2060908 (Molecular Pharmacology Branch, DTP, NCI, 2025)

Test system: 186277-243-T-J2-PDC complex spheroids, viability
Experiment: Anticancer human tumor 186277-243-T-J2-PDC patient-derived colon adenocarcinoma cell line growth inhibition [RAS]
Conditions: for IC50: curve of first compound; for viability, T/C: stronger effect = lower value
Summary of the method: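 Agents were tested in combination matrices in half-log decrements from a top concentration at or near clinical Cmax (10 microM if undetermined). Targets were multi-cell spheroids of tumour lines plus HUVEC and MSC stromal cells.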

[1] = second compound 0.00316 µM, first compound 0.000949 µM
[2] = second compound 0.00316 µM, first compound 0.003 µM
[3] = second compound 0.00316 µM, first compound 0.00949 µM
[4] = second compound 0.00316 µM, first compound 0.03 µM
[5] = second compound 0.00316 µM, first compound 0.0949 µM
[6] = second compound 0.00316 µM, first compound 0.3 µM
[7] = second compound 0.01 µM, first compound 0.000949 µM
[8] = second compound 0.01 µM, first compound 0.003 µM
[9] = second compound 0.01 µM, first compound 0.00949 µM
[10] = second compound 0.01 µM, first compound 0.03 µM
[11] = second compound 0.01 µM, first compound 0.0949 µM
[12] = second compound 0.01 µM, first compound 0.3 µM
[13] = second compound 0.0316 µM, first compound 0.000949 µM
[14] = second compound 0.0316 µM, first compound 0.003 µM
[15] = second compound 0.0316 µM, first compound 0.00949 µM
[16] = second compound 0.0316 µM, first compound 0.03 µM
[17] = second compound 0.0316 µM, first compound 0.0949 µM
[18] = second compound 0.0316 µM, first compound 0.3 µM
[19] = second compound 0.1 µM, first compound 0.000949 µM
[20] = second compound 0.1 µM, first compound 0.003 µM
[21] = second compound 0.1 µM, first compound 0.00949 µM
[22] = second compound 0.1 µM, first compound 0.03 µM
[23] = second compound 0.1 µM, first compound 0.0949 µM
[24] = second compound 0.1 µM, first compound 0.3 µM
[25] = second compound 0.316 µM, first compound 0.000949 µM
[26] = second compound 0.316 µM, first compound 0.003 µM
[27] = second compound 0.316 µM, first compound 0.00949 µM
[28] = second compound 0.316 µM, first compound 0.03 µM
[29] = second compound 0.316 µM, first compound 0.0949 µM
[30] = second compound 0.316 µM, first compound 0.3 µM
[31] = second compound 1 µM, first compound 0.000949 µM
[32] = second compound 1 µM, first compound 0.003 µM
[33] = second compound 1 µM, first compound 0.00949 µM
[34] = second compound 1 µM, first compound 0.03 µM
[35] = second compound 1 µM, first compound 0.0949 µM
[36] = second compound 1 µM, first compound 0.3 µM
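Further: spheroids exposed to compounds for 7 days before viability read.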

For `CC(=O)OC12COC1CC(O)C1(C)C(=O)C(O)C3=C(C)C(OC(=O)C(O)C(NC(=O)OC(C)(C)C)c4ccccc4)CC(O)(C(OC(=O)c4ccccc4)C21)C3(C)C` (stereo unspecified) + C=CC(=O)N1CCN(c2nc(OCC3CCCN3C)nc3c(F)c(-c4nc(N)cc(C)c4C(F)(F)F)c(Cl)cc23)C(C)C1, the IC50 (second compound 0.00316 µM) was < 31.6 nM, the IC50 (second compound 0.01 µM) was < 31.6 nM and the IC50 (second compound 0.0316 µM) was < 31.6 nM. For the same compound, the IC50 (second compound 0.1 µM) was < 31.6 nM, the IC50 (second compound 0.316 µM) was < 31.6 nM and the IC50 (second compound 1 µM) was < 31.6 nM. The viability, T/C (second compound 0.00316 µM, first compound 0.0316 µM) was 8.38%, the viability, T/C (second compound 0.00316 µM, first compound 0.1 µM) was 7.03% and the viability, T/C (second compound 0.00316 µM, first compound 0.316 µM) was 7.44%. The viability, T/C (second compound 0.00316 µM, first compound 1 µM) was 6.91%, the viability, T/C (second compound 0.00316 µM, first compound 3.16 µM) was 7.11% and the viability, T/C (second compound 0.00316 µM, first compound 10 µM) was 7.02%. The viability, T/C (second compound 0.01 µM, first compound 0.0316 µM) was 8.84%, the viability, T/C (second compound 0.01 µM, first compound 0.1 µM) was 6.99% and the viability, T/C (second compound 0.01 µM, first compound 0.316 µM) was 7.34%. The viability, T/C (second compound 0.01 µM, first compound 1 µM) was 7.25%, the viability, T/C (second compound 0.01 µM, first compound 3.16 µM) was 7.21% and the viability, T/C (second compound 0.01 µM, first compound 10 µM) was 6.02%. It also gave a viability, T/C (second compound 0.0316 µM, first compound 0.0316 µM) of 8.72%, a viability, T/C (second compound 0.0316 µM, first compound 0.1 µM) of 7.79% and a viability, T/C (second compound 0.0316 µM, first compound 0.316 µM) of 7.18%. It also gave a viability, T/C (second compound 0.0316 µM, first compound 1 µM) of 7.01%, a viability, T/C (second compound 0.0316 µM, first compound 3.16 µM) of 6.46% and a viability, T/C (second compound 0.0316 µM, first compound 10 µM) of 5.97%. For the same compound, the viability, T/C (second compound 0.1 µM, first compound 0.0316 µM) was 8.28%, the viability, T/C (second compound 0.1 µM, first compound 0.1 µM) was 7.95% and the viability, T/C (second compound 0.1 µM, first compound 0.316 µM) was 8.02%. The viability, T/C (second compound 0.1 µM, first compound 1 µM) was 7.09%, the viability, T/C (second compound 0.1 µM, first compound 3.16 µM) was 8.08% and the viability, T/C (second compound 0.1 µM, first compound 10 µM) was 6.87%. It also gave a viability, T/C (second compound 0.316 µM, first compound 0.0316 µM) of 8.75%, a viability, T/C (second compound 0.316 µM, first compound 0.1 µM) of 8.38% and a viability, T/C (second compound 0.316 µM, first compound 0.316 µM) of 10.2%. The viability, T/C (second compound 0.316 µM, first compound 1 µM) was 8.18%, the viability, T/C (second compound 0.316 µM, first compound 3.16 µM) was 8.14% and the viability, T/C (second compound 0.316 µM, first compound 10 µM) was 6.78%. The viability, T/C (second compound 1 µM, first compound 0.0316 µM) was 12%, the viability, T/C (second compound 1 µM, first compound 0.1 µM) was 9.42% and the viability, T/C (second compound 1 µM, first compound 0.316 µM) was 9.31%. It also gave a viability, T/C (second compound 1 µM, first compound 1 µM) of 8.34%, a viability, T/C (second compound 1 µM, first compound 3.16 µM) of 11.8% and a viability, T/C (second compound 1 µM, first compound 10 µM) of 9.17%.
`CC1(C)CCC(Nc2ncc(C(F)(F)F)c(-c3c[nH]c4c(P(C)(C)=O)c(C#N)ccc34)n2)CN1` (stereo unspecified) + C=CC(=O)N1CCN(c2nc(OCC3CCCN3C)nc3c(F)c(-c4nc(N)cc(C)c4C(F)(F)F)c(Cl)cc23)C(C)C1 was tested, and the IC50 (second compound 0.00316 µM) was > 300 nM, the IC50 (second compound 0.01 µM) was > 300 nM and the IC50 (second compound 0.0316 µM) was > 300 nM. For the same compound, the IC50 (second compound 0.1 µM) was > 300 nM, the IC50 (second compound 0.316 µM) was > 300 nM and the IC50 (second compound 1 µM) was > 300 nM. For the same compound, the viability, T/C [1] was 94.9%, the viability, T/C [2] was 98.4% and the viability, T/C [3] was 143%. For the same compound, the viability, T/C [4] was 66.8%, the viability, T/C [5] was 75.5% and the viability, T/C [6] was 56.9%. For the same compound, the viability, T/C [7] was 109%, the viability, T/C [8] was 115% and the viability, T/C [9] was 146%. For the same compound, the viability, T/C [10] was 58.6%, the viability, T/C [11] was 60.2% and the viability, T/C [12] was 66.4%. The viability, T/C [13] was 101%, the viability, T/C [14] was 118% and the viability, T/C [15] was 135%. It also gave a viability, T/C [16] of 85.4%, a viability, T/C [17] of 66.7% and a viability, T/C [18] of 65.9%. It also gave a viability, T/C [19] of 96.6%, a viability, T/C [20] of 120% and a viability, T/C [21] of 120%. It also gave a viability, T/C [22] of 71.4%, a viability, T/C [23] of 69.7% and a viability, T/C [24] of 63.2%. The viability, T/C [25] was 103%, the viability, T/C [26] was 96% and the viability, T/C [27] was 98.5%. The viability, T/C [28] was 82.2%, the viability, T/C [29] was 65% and the viability, T/C [30] was 62.1%. For the same compound, the viability, T/C [31] was 112%, the viability, T/C [32] was 102% and the viability, T/C [33] was 114%. It also gave a viability, T/C [34] of 70.8%, a viability, T/C [35] of 64.3% and a viability, T/C [36] of 68.5%.
In the case of `CCc1c2c(nc3ccc(O)cc13)-c1cc3c(c(=O)n1C2)COC(=O)[C@]3(O)CC` + C=CC(=O)N1CCN(c2nc(OCC3CCCN3C)nc3c(F)c(-c4nc(N)cc(C)c4C(F)(F)F)c(Cl)cc23)C(C)C1, the IC50 (second compound 0.00316 µM) is reported as 18 nM, the IC50 (second compound 0.01 µM) is reported as 15.4 nM and the IC50 (second compound 0.0316 µM) is reported as 28.9 nM. The IC50 (second compound 0.1 µM) was 22.6 nM, the IC50 (second compound 0.316 µM) was 26.2 nM and the IC50 (second compound 1 µM) was 27.5 nM. It also gave a viability, T/C [1] of 115%, a viability, T/C [2] of 94.9% and a viability, T/C [3] of 61.3%. For the same compound, the viability, T/C [4] was 40.9%, the viability, T/C [5] was 22.4% and the viability, T/C [6] was 14.9%. The viability, T/C [7] was 120%, the viability, T/C [8] was 87.5% and the viability, T/C [9] was 55%. For the same compound, the viability, T/C [10] was 40.1%, the viability, T/C [11] was 25.7% and the viability, T/C [12] was 14.2%. It also gave a viability, T/C [13] of 110%, a viability, T/C [14] of 95.6% and a viability, T/C [15] of 68.7%. It also gave a viability, T/C [16] of 56.6%, a viability, T/C [17] of 21.8% and a viability, T/C [18] of 15.6%. It also gave a viability, T/C [19] of 109%, a viability, T/C [20] of 98.1% and a viability, T/C [21] of 68.7%. The viability, T/C [22] was 46%, the viability, T/C [23] was 20.3% and the viability, T/C [24] was 13.7%. The viability, T/C [25] was 89.2%, the viability, T/C [26] was 91.9% and the viability, T/C [27] was 65.5%. It also gave a viability, T/C [28] of 51%, a viability, T/C [29] of 24.5% and a viability, T/C [30] of 17.4%. The viability, T/C [31] was 93.2%, the viability, T/C [32] was 76.1% and the viability, T/C [33] was 73%. The viability, T/C [34] was 47.1%, the viability, T/C [35] was 29% and the viability, T/C [36] was 17.5%.
